Results reported in patent publication EP3383875B1, “3-PYRIMIDINYL PYRROLO [2,3-B] PYRIDINE AS ANTICANCER AGENTS AND THE PROCESS FOR THE PREPARATION THEREOF” (Council Of Scientific & Industrial Research, priority 2015, dated 2017).
Where two headings read alike, the source gives them in different places.

How the values were obtained:
CDK-2/cyclin A = CDK-2/cyclin A (Homo sapiens, UniProt P24941); assay: CDK inhibition assay, CDK-2/cyclin A against Histone HI, 33P-ATP; type: biochemical
Description: Compounds were evaluated for their ability to inhibit CDK2 and CDK9 as given below.
CDK-2/cyclin A (5-20 mU diluted in 50 mM Hepes pH 7.5, 1 mM DTT, 0.02% Brij35, 100 mM NaCl) was assayed against Histone HI in a final volume of 25.5 µl containing 50 mM Hepes pH7.5, 1 mM DTT, 0.02% Brij35, 100 mM NaCl, Histone HI (1 mg/ml), 10 mM magnesium acetate and 0.02 mM [33P-g-ATP](500-1000 cpm/pmole) and incubated for 30 min at room temperature. Assays were stopped by addition of 5 µl of 0.5 M (3%) orthophosphoric acid and then harvested onto P81 Unifilter plates with a wash buffer of 50 mM orthophosphoric acid.

CDK-9/Cyclin T1 = CDK-9/Cyclin T1 (Homo sapiens, UniProt P50750); assay: CDK inhibition assay, CDK-9/Cyclin T1 against substrate peptide, 33P-ATP; type: biochemical
Sequence of CDK-9/Cyclin T1 (P50750 whole entry): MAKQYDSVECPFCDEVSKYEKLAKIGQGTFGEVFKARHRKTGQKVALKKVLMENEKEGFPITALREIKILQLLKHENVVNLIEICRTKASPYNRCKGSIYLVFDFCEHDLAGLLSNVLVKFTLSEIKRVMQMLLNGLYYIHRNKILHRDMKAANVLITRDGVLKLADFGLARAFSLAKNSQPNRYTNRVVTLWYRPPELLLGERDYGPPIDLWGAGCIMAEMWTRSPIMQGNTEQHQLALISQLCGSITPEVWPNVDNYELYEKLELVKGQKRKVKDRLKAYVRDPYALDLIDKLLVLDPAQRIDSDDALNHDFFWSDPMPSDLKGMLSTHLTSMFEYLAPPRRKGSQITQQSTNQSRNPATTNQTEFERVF
Sequence of CDK-9/Cyclin T1 (O60563 whole entry partner): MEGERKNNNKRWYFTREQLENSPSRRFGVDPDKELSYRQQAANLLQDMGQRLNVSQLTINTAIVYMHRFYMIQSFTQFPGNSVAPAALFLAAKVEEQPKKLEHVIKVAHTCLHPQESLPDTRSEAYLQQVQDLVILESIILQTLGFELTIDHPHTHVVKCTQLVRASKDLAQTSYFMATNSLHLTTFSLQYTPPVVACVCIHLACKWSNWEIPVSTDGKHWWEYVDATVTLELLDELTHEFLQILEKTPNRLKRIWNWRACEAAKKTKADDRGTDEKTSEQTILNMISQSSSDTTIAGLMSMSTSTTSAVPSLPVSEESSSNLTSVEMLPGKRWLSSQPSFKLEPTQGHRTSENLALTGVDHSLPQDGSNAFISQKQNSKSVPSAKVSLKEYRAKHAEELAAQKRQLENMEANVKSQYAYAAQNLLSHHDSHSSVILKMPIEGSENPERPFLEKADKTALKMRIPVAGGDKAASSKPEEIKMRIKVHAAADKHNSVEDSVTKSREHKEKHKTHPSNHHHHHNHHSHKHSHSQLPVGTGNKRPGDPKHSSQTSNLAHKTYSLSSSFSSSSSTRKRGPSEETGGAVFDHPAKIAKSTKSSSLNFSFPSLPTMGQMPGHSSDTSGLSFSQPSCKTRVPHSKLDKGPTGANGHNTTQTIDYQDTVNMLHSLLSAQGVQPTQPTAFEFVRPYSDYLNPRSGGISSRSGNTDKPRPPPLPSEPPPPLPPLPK
Description: (50-1000 cpm/pmole) and incubated for 30 min at room temperature. Assays were stopped by addition of 5 µl of 0.5 M (3%) orthophosphoric acid and then harvested onto P81 Unifilter plates with a wash buffer of 50 mM orthophosphoric acid.

[1] = at 500 nM, Table-7, read-out: In vitro CDK2 % of inhibition
[2] = at 500 nM, read-out: inhibition against CDK2
[3] = at 500 nM, Table-7, read-out: In vitro CDK9 % of inhibition
[4] = at 500 nM, read-out: inhibition against CDK9
[5] = at 500 nM, Table-6, read-out: In vitro CDK2 % of inhibition
[6] = at 500 nM, Table-6, read-out: In vitro CDK9 % of inhibition

Row | inhibition at 0.5 µM (CDK-2/cyclin A; [1]) [%] | inhibition at 0.5 µM (CDK-2/cyclin A; [2]) [%] | inhibition at 0.5 µM (CDK-9/Cyclin T1; [3]) [%] | inhibition at 0.5 µM (CDK-9/Cyclin T1; [4]) [%] | inhibition at 0.5 µM (CDK-2/cyclin A; [5]) [%] | inhibition at 0.5 µM (CDK-9/Cyclin T1; [6]) [%] | inhibition at 0.5 µM (CDK-9/Cyclin T1; read-out: In vitro CDK9 % of inhibition, at 500 nM, Table-6) [%] | Structure (SMILES) | inhibition at 0.5 µM (CDK-2/cyclin A; read-out: inhibition against CDK2) [%] | inhibition at 0.5 µM (CDK-9/Cyclin T1; read-out: In vitro CDK9 % of inhibition) [%] | inhibition at 0.5 µM (CDK-9/Cyclin T1; read-out: inhibition against CDK9) [%]
1 | > 50 | > 50 | > 50 | > 50 | – | – | – | c1ccc(CCNc2nccc(-c3c[nH]c4ncc(-c5cccc6ccccc56)cc34)n2)cc1 [1B14, 4-(5-(naphthalen-1-yl)-1H-pyrrolo[2,3-b]pyridin-3-yl)-N-phenethylpyrimidin-2-amine] | – | – | –
2 | > 70 | > 70 | > 70 | > 70 | – | – | – | c1ccc2c(-c3cnc4[nH]cc(-c5ccnc(NC6CCCCCC6)n5)c4c3)cccc2c1 [1A54, N-cycloheptyl-4-(5-(naphthalen-1-yl)-1H-pyrrolo[2,3-b]pyridin-3-yl)pyrimidin-2-amine] | – | – | –
3 | – | > 70 | – | > 70 | > 70 | > 70 | – | FC(F)(F)c1cccc(-c2cnc3[nH]cc(-c4ccnc(NC5CC5)n4)c3c2)c1 [1A4, N-cyclopropyl-4-(5-(3-(trifluoromethyl)phenyl)-1H-pyrrolo[2,3-b]pyridin-3-yl)pyrimidin-2-amine] | – | – | –
4 | – | > 50 | – | > 50 | > 50 | > 50 | – | c1ccc2sc(-c3cnc4[nH]cc(-c5ccnc(NC6CCCC6)n5)c4c3)cc2c1 [1A38, 4-(5-(benzo[b]thiophen-2-yl)-1H-pyrrolo[2,3-b]pyridin-3-yl)-N-cyclopentylpyrimidin-2-amine] | – | – | –
5 | – | > 70 | – | > 70 | > 70 | > 70 | – | CSc1ccccc1-c1cnc2[nH]cc(-c3ccnc(NC4CCCC4)n3)c2c1 [1A29, N-cyclopentyl-4-(5-(2-(methylthio)phenyl)-1H-pyrrolo[2,3-b]pyridin-3-yl)pyrimidin-2-amine] | – | – | –
6 | – | > 50 | – | > 50 | > 50 | > 50 | – | CSc1ccc(-c2cnc3[nH]cc(-c4ccnc(NC5CCCC5)n4)c3c2)cc1 [1A28, N-cyclopentyl-4-(5-(4-(methylthio)phenyl)-1H-pyrrolo[2,3-b]pyridin-3-yl)pyrimidin-2-amine] | – | – | –
7 | > 50 | > 50 | > 50 | > 50 | – | – | – | CC(=O)c1ccc(-c2cnc3[nH]cc(-c4ccnc(NCCc5ccccc5)n4)c3c2)cc1 [1B13, 1-(4-(3-(2-(phenethylamino)pyrimidin-4-yl)-1H-pyrrolo[2,3-b]pyridin-5-yl)phenyl)ethan-1-one] | – | – | –
8 | – | > 70 | – | > 70 | > 70 | > 70 | – | c1ccc2sc(-c3cnc4[nH]cc(-c5ccnc(NC6CC6)n5)c4c3)cc2c1 [1A18, 4-(5-(benzo[b]thiophen-2-yl)-1H-pyrrolo[2,3-b]pyridin-3-yl)-N-cyclopropylpyrimidin-2-amine] | – | – | –
9 | – | – | – | – | > 70 | > 50 | – | FC(F)(F)c1cccc(-c2cnc3[nH]cc(-c4ccnc(NC5CCCCCC5)n4)c3c2)c1 [1A44, N-cycloheptyl-4-(5-(3-(trifluoromethyl)phenyl)-1H-pyrrolo[2,3-b]pyridin-3-yl)pyrimidin-2-amine] | – | – | –
10 | > 50 | > 50 | > 50 | > 50 | – | – | – | c1ccc(CCNc2nccc(-c3c[nH]c4ncc(-c5nccc6ccccc56)cc34)n2)cc1 [1B20, 4-(5-(isoquinolin-1-yl)-1H-pyrrolo[2,3-b]pyridin-3-yl)-N-phenethylpyrimidin-2-amine] | – | – | –
11 | – | > 50 | – | > 50 | > 50 | > 50 | – | Cc1ccc(-c2cnc3[nH]cc(-c4ccnc(NC5CCCC5)n4)c3c2)cc1 [1A26, N-cyclopentyl-4-(5-(p-tolyl)-1H-pyrrolo[2,3-b]pyridin-3-yl)pyrimidin-2-amine] | – | – | –
12 | > 70 | > 70 | > 70 | > 70 | – | – | – | c1ccc2sc(-c3cnc4[nH]cc(-c5ccnc(NC6CCCCCC6)n5)c4c3)cc2c1 [1A58, 4-(5-(benzo[b]thiophen-2-yl)-1H-pyrrolo[2,3-b]pyridin-3-yl)-N-cycloheptylpyrimidin-2-amine] | – | – | –
13 | – | > 50 | – | > 50 | > 50 | > 50 | – | CCc1ccccc1-c1cnc2[nH]cc(-c3ccnc(NC4CCCC4)n3)c2c1 [1A30, N-cyclopentyl-4-(5-(2-ethylphenyl)-1H-pyrrolo[2,3-b]pyridin-3-yl)pyrimidin-2-amine] | – | – | –
14 | – | > 50 | – | > 50 | > 50 | > 50 | – | Clc1ccc(-c2cnc3[nH]cc(-c4ccnc(NC5CCCC5)n4)c3c2)cc1 [1A32, 4-(5-(4-chlorophenyl)-1H-pyrrolo [2,3-b]pyridin-3-yl)-N-cyclopentylpyrimidin-2-amine] | – | – | –
15 | – | – | – | – | > 70 | – | > 70 | CN1CC[C@H](c2c(O)cc(O)c3c(=O)cc(-c4ccccc4Cl)oc23)[C@H](O)C1 [Flavopyr idol, flavopiridol, reference compound] | – | – | –
16 | – | > 70 | – | > 70 | > 70 | > 70 | – | O=Cc1ccc(-c2cnc3[nH]cc(-c4ccnc(NC5CC5)n4)c3c2)cc1 [1A13, 4-(3-(2-(cyclopropylamino)pyrimidin-4-yl)-1H-pyrrolo[2,3-b]pyridin-5-yl)benzaldehyde] | – | – | –
17 | > 50 | > 50 | > 50 | > 50 | – | – | – | c1ccc(CCNc2nccc(-c3c[nH]c4ncc(-c5cc6ccccc6s5)cc34)n2)cc1 [1B18, 4-(5-(benzo[b]thiophen-2-yl)-1H-pyrrolo[2,3-b]pyridin-3-yl)-N-phenethylpyrimidin-2-amine] | – | – | –
18 | – | – | – | – | > 50 | > 50 | – | c1ccc2c(-c3cnc4[nH]cc(-c5ccnc(NC6CCCC6)n5)c4c3)cccc2c1 [1A34, N-cyclopentyl-4-(5-(naphthalen-1-yl)-1H-pyrrolo[2,3-b]pyridin-3-yl)pyrimidin-2-amine] | – | – | –
19 | – | – | – | – | < 50 | < 50 | – | FC(F)(F)c1ccc(-c2cnc3[nH]cc(-c4ccnc(NC5CC5)n4)c3c2)cc1 [1A1, N-cyclopropyl-4-(5-(4-(trifluoromethyl)phenyl)-1H-pyrrolo[2,3-b]pyridin-3-yl)pyrimidin-2-amine] | – | – | –
20 | – | > 50 | – | > 50 | > 50 | > 50 | – | COc1ccc2[nH]c(-c3cnc4[nH]cc(-c5ccnc(NC6CC6)n5)c4c3)cc2c1 [1A17, N-cyclopropyl-4-(5-(5-methoxy-1H-indol-2-yl)-1H-pyrrolo[2,3-b]pyridin-3-yl)pyrimidin-2-amine] | – | – | –
21 | > 70 | > 70 | > 70 | > 70 | – | – | – | c1ccc2[nH]c(-c3cnc4[nH]cc(-c5ccnc(NC6CCCCCC6)n5)c4c3)cc2c1 [1A59, 4-(5-(1H-indol-2-yl)-1H-pyrrolo[2,3-b]pyridin-3-yl)-N-cycloheptylpyrimidin-2-amine] | – | – | –
22 | – | – | – | – | > 70 | > 50 | – | O=Cc1ccc(-c2cnc3[nH]cc(-c4ccnc(NC5CCCC5)n4)c3c2)cc1 [1A33, 4-(3-(2-(cyclopentylamino)pyrimidin-4-yl)-1H-pyrrolo[2,3-b]pyridin-5-yl)benzaldehyde] | – | – | –
23 | – | > 50 | – | > 50 | > 50 | > 50 | – | Cc1ccc(-c2cnc3[nH]cc(-c4ccnc(NC5CCCCCC5)n4)c3c2)cc1 [1A46, N-cycloheptyl-4-(5-(p-tolyl)-1H-pyrrolo[2,3-b]pyridin-3-yl)pyrimidin-2-amine] | – | – | –
24 | – | > 50 | – | > 50 | > 50 | > 50 | – | c1cc(-c2c[nH]c3ncc(-c4ccoc4)cc23)nc(NC2CCCC2)n1 [1A36, N-cyclopentyl-4-(5-(furan-3-yl)-1H-pyrrolo[2,3-b]pyridin-3-yl)pyrimidin-2-amine] | – | – | –
25 | – | > 50 | – | > 50 | > 50 | > 50 | – | c1ccc2[nH]c(-c3cnc4[nH]cc(-c5ccnc(NC6CCCC6)n5)c4c3)cc2c1 [1A39, 4-(5-(1H-indol-2-yl)-1H-pyrrolo[2,3-b]pyridin-3-yl)-N-cyclopentylpyrimidin-2-amine] | – | – | –
26 | > 70 | > 70 | > 70 | > 70 | – | – | – | CCc1ccccc1-c1cnc2[nH]cc(-c3ccnc(NC4CCCCCC4)n3)c2c1 [1A50, N-cycloheptyl-4-(5-(2-ethylphenyl)-1H-pyrrolo[2,3-b]pyridin-3-yl)pyrimidin-2-amine] | – | – | –

Row | Structure (SMILES) | inhibition at 0.5 µM (CDK-2/cyclin A; [1]) [%] | inhibition at 0.5 µM (CDK-2/cyclin A; [2]) [%] | inhibition at 0.5 µM (CDK-9/Cyclin T1; [3]) [%] | inhibition at 0.5 µM (CDK-9/Cyclin T1; [4]) [%] | inhibition at 0.5 µM (CDK-2/cyclin A; [5]) [%] | inhibition at 0.5 µM (CDK-9/Cyclin T1; [6]) [%] | inhibition at 0.5 µM (CDK-9/Cyclin T1; read-out: In vitro CDK9 % of inhibition, at 500 nM, Table-6) [%] | inhibition at 0.5 µM (CDK-2/cyclin A; read-out: inhibition against CDK2) [%] | inhibition at 0.5 µM (CDK-9/Cyclin T1; read-out: In vitro CDK9 % of inhibition) [%] | inhibition at 0.5 µM (CDK-9/Cyclin T1; read-out: inhibition against CDK9) [%]
27 | c1ccc(CCNc2nccc(-c3c[nH]c4ncc(-c5ccoc5)cc34)n2)cc1 [1B16, 4-(5-(furan-3-yl)-1H-pyrrolo[2,3-b]pyridin-3-yl)-N-phenethylpyrimidin-2-amine] | > 70 | – | – | – | – | – | – | > 70 | > 70 | > 70
